Measured values: the supplement of paper PMC13380429

Assays:
[1] = test system: U2OS; experiment: cell viability relative to DMSO; higher = less toxic; conditions: 72 h
[2] = test system: Caco-2; experiment: as above; conditions: 72 h
[3] = test system: Vero E6; experiment: as above; conditions: 72 h
[4] = test system: HepG2; experiment: as above; conditions: 72 h
[5] = test system: U2OS; experiment: drug sensitivity score (DSS) for viability; higher = more toxic; extreme values may be limits of the assay; conditions: 72 h
[6] = test system: Caco-2; experiment: as above; conditions: 72 h
[7] = test system: Vero E6; experiment: as above; conditions: 72 h
[8] = test system: HepG2; experiment: as above; conditions: 72 h
[9] = test system: A549-ACE2 infected with SARS-CoV-2; experiment: cell count relative to DMSO; higher = less toxic; conditions: 24 h
[10] = test system: A549-ACE2 infected with SARS-CoV-2; experiment: SARS-CoV-2 infection rate relative to DMSO; higher = more infection; conditions: 24 h
[11] = test system: A549-ACE2; experiment: drug-induced phospholipidosis relative to tamoxifen; higher = more phospholipidosis
[12] = test system: U2OS; experiment: relative viability EC50 (midpoint between 100% and the lowest measured viability); higher = less toxic; conditions: 72 h
[13] = test system: Caco-2; experiment: as above; conditions: 72 h
[14] = test system: Vero E6; experiment: as above; conditions: 72 h
[15] = test system: HepG2; experiment: as above; conditions: 72 h
[16] = test system: A549-ACE2 infected with SARS-CoV-2; experiment: morphology score (similarity to uninfected cells); higher = more like uninfected cells; conditions: 24 h
[17] = test system: Calu-3; experiment: cell viability relative to DMSO; higher = less toxic; conditions: 72 h
[18] = test system: Calu-3; experiment: drug sensitivity score (DSS) for viability; higher = more toxic; extreme values may be limits of the assay; conditions: 72 h
[19] = test system: Calu-3; experiment: relative viability EC50 (midpoint between 100% and the lowest measured viability); higher = less toxic; conditions: 72 h

O=C(Nc1ccc(-c2ccncc2)cc1)N[C@H](CO)c1ccccc1
Conditions	SARS-CoV-2 infection rate, [10] [%]	cell count, [9] [%]	cell viability, [1] [%]	cell viability, [2] [%]	cell viability, [3] [%]	cell viability, [4] [%]	morphology score, [16]
1 nM	–	–	98.6	99.4	97	96.7	–
10 nM	–	–	96.3	98.6	98.2	94.7	–
100 nM	–	–	99.2	96.1	98	105	–
0.1 µM	98	105	–	–	–	–	0.27
0.3 µM	101	112	–	–	–	–	0.23
1000 nM	–	–	97.5	95.3	94.2	102	–
1 µM	94	106	–	–	–	–	0.26
3 µM	110	91	–	–	–	–	-0.17
10000 nM	–	–	94.7	96.4	77	84.8	–

Conditions	drug sensitivity score	relative viability EC50 [µM]
[5]	0	–
[6]	0	–
[7]	1.6	–
[8]	0.2	–
[12]	–	> 10
[13]	–	> 10
[14]	–	> 10
[15]	–	> 10

drug-induced phospholipidosis [%], [11]
Conditions	0.3 µM	0.833333 µM	3.33333 µM	6.66667 µM	10 µM	30 µM
24 h	3.51	2.55	2.66	3.66	1.91	3.72
48 h	2.8	0.36	-0.35	3.11	1.09	6.28
72 h	2.59	-2.02	-0.767	-0.334	-0.186	6.14

Nc1nc(N)c(N=O)c(OCC2CCCCC2)n1 [NU-6027]
Conditions	SARS-CoV-2 infection rate, [10] [%]	cell count, [9] [%]	cell viability, [1] [%]	cell viability, [2] [%]	cell viability, [3] [%]	cell viability, [4] [%]	cell viability, [17] [%]	morphology score, [16]
1 nM	–	–	104	100	96	87.7	101	–
10 nM	–	–	101	97.5	105	92.7	117	–
100 nM	–	–	104	96.6	99.8	96.4	106	–
0.3 µM	104	100	–	–	–	–	–	-0.13
1000 nM	–	–	101	100	95	89.9	105	–
3 µM	68	103	–	–	–	–	–	0.59
10000 nM	–	–	70.7	46	89.7	58.4	81.4	–
10 µM	52	107	–	–	–	–	–	0.62
30 µM	41	100	–	–	–	–	–	0.46

Conditions	drug sensitivity score	relative viability EC50 [µM]
[5]	1.2	–
[6]	2.9	–
[7]	0	–
[8]	3.7	–
[13]	–	3.17
[14]	–	> 10
[18]	0.3	–
[19]	–	> 10

drug-induced phospholipidosis [%], [11]
Conditions	0.3 µM	0.833333 µM	3.33333 µM	6.66667 µM	10 µM	30 µM
24 h	1.28	-0.02	2.45	3.35	2.35	28.5
48 h	2.37	-0.39	-0.5	-1.38	1.26	–
72 h	1.92	-1.07	-2.27	-1.09	-1.29	–

CCN(CC)Cc1cc(Nc2ccnc3cc(Cl)ccc23)ccc1O [amodiaquine]
Conditions	SARS-CoV-2 infection rate, [10] [%]	cell count, [9] [%]	cell viability, [1] [%]	cell viability, [2] [%]	cell viability, [3] [%]	cell viability, [4] [%]	cell viability, [17] [%]	morphology score, [16]
1 nM	–	–	98.5	99.3	101	103	114	–
10 nM	–	–	101	92.1	99.3	79	110	–
100 nM	–	–	103	90.2	101	85.7	106	–
0.3 µM	87	109	–	–	–	–	–	0.38
1000 nM	–	–	98.1	96.7	95.3	85.7	91.5	–
3 µM	24	121	–	–	–	–	–	0.87
10000 nM	–	–	93.9	58.5	84.9	57.7	81.8	–
10 µM	12	133	–	–	–	–	–	0.76
30 µM	14	121	–	–	–	–	–	0.1

Conditions	drug sensitivity score	relative viability EC50 [µM]
[5]	0	–
[6]	2.6	–
[7]	0.6	–
[8]	5.5	–
[12]	–	> 10
[14]	–	> 10
[18]	1.3	–
[19]	–	> 10

Cc1c(-c2ccc(O)cc2)n(Cc2ccc(OCCN3CCCCCC3)cc2)c2ccc(O)cc12 [bazedoxifene]
Conditions	SARS-CoV-2 infection rate, [10] [%]	cell count, [9] [%]	cell viability, [1] [%]	cell viability, [2] [%]	cell viability, [3] [%]	cell viability, [4] [%]	cell viability, [17] [%]	morphology score, [16]
1 nM	–	–	104	104	102	95.2	96.3	–
10 nM	–	–	101	95.3	105	106	91.5	–
100 nM	–	–	104	95.4	98.3	95.3	105	–
0.1 µM	97	99	–	–	–	–	–	0.02
0.3 µM	103	105	–	–	–	–	–	0.05
1000 nM	–	–	99.2	91.5	100	98.1	97.6	–
1 µM	85	103	–	–	–	–	–	0.36
3 µM	22	122	–	–	–	–	–	0.83
10000 nM	–	–	53	60.4	18.1	12.3	11.6	–

Conditions	drug sensitivity score	relative viability EC50 [µM]
[5]	2.5	–
[6]	3.3	–
[7]	4.5	–
[8]	5.1	–
[14]	–	3.18
[15]	–	3.01
[18]	5.2	–
[19]	–	2.97

drug-induced phospholipidosis [%], [11]
Conditions	0.3 µM	0.833333 µM	3.33333 µM	6.66667 µM	10 µM
24 h	0.63	6.49	23.7	37.6	4.23
48 h	0.36	3.68	24.9	44.4	36.7
72 h	0.978	3.09	19.4	39.6	52.6
